Laboratory results: US7479478B2, “Human parathyroid hormone modifications, preparation and use” (The General Hospital Corporation, priority 1998, dated 2009)
No end group written: not given here.

Tests used:
rat PTH-1 receptors = molecular target: T1, rat PTH-1 receptors (Rattus norvegicus, UniProt P25961); assay: AC activation (cAMP) in EW5 cells; assay type: cell-based
T1 construct: expressed in transfected cells
T1 sequence (P25961 27-591): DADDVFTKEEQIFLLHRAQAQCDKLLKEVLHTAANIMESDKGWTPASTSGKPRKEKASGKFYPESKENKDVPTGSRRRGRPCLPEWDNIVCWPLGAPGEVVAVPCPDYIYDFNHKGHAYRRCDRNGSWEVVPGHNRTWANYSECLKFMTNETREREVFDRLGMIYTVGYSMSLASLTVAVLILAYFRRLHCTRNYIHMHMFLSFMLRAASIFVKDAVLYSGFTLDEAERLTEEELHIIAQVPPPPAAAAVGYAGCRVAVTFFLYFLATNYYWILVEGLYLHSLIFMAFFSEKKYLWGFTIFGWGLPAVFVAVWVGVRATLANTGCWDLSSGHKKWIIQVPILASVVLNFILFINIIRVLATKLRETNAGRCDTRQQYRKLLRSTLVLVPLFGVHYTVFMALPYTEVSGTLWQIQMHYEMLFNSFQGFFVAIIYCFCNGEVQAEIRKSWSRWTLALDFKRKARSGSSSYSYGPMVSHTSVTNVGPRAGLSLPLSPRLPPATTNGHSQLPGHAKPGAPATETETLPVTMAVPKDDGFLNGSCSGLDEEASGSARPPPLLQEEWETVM
Protocol: HKRK B7 or EW5 cells (32), subclones of LLC-PKI renal epithelial cells that stably express human or rat PTH-1 receptors (950,000 and 320,000 receptors/cell, respectively), were maintained under 5% CO2 in air in Dulbecco's modified essential medium containing 7% fetal bovine serum (FBS) and 1% penicillin/streptomycin (GIBCO-BRL, Grand Island, N.Y.). HEK-293 and COS-7 cells were cultured similarly, except that 10% FBS was used in the medium. Cells were seeded into 24-well plates two days before assay at a density of 2-2.5×10^5 cells/well (HKRK B7 or EW 5 cells) or 6×10^5 cells/well (in 6-well plates) (HEK-293 cells). […]
Intracellular cAMP accumulation, PLC activation and PTHR binding affinity were measured as previously reported (Bringhurst, F. R., et al., Endocrinology 132(5):2090-2098 (1993); Guo, J., et al., Endocrinology 136(9):3884-3891 (1995)). Intracellular cAMP accumulation was measured in extracts of cells that were exposed to human PTH peptides in the presence of isobutylmethyxanthine (IBMX, 1 mM) at 37° C. for 15 min. After terminating the reactions by aspiration and freezing in liquid nitrogen, cell monolayers were extracted with 50 mM HCl and cAMP was measured using a radioimmunoassay kit (Dupont-New England Nuclear, Boston, Mass.). […]

human PTH-1 receptors = molecular target: T2, human PTH-1 receptors (Homo sapiens, UniProt Q03431); assay: PLC activation (total inositol polyphosphates) in transiently transfected HEK-293 cells; assay type: cell-based; conditions: 1000 nM peptide, mean ± SEM
T2 construct: expressed in transfected cells
T2 sequence (Q03431 27-593): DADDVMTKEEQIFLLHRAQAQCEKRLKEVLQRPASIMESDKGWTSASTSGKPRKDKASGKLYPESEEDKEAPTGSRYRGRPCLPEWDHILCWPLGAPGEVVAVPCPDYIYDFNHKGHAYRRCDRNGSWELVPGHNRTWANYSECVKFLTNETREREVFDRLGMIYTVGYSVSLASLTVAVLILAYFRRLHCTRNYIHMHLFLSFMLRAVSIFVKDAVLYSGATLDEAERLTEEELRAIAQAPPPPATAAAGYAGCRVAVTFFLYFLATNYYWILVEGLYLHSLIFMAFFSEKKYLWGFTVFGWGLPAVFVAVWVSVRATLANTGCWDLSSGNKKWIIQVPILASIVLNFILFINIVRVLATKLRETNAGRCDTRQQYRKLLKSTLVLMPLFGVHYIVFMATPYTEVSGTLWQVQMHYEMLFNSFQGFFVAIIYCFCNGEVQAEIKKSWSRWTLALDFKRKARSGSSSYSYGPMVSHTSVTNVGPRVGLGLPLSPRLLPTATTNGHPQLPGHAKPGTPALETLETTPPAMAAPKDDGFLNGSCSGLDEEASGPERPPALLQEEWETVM
Protocol: HKRK B7 or EW5 cells (32), subclones of LLC-PKI renal epithelial cells that stably express human or rat PTH-1 receptors (950,000 and 320,000 receptors/cell, respectively), were maintained under 5% CO2 in air in Dulbecco's modified essential medium containing 7% fetal bovine serum (FBS) and 1% penicillin/streptomycin (GIBCO-BRL, Grand Island, N.Y.). HEK-293 and COS-7 cells were cultured similarly, except that 10% FBS was used in the medium. Cells were seeded into 24-well plates two days before assay at a density of 2-2.5×10^5 cells/well (HKRK B7 or EW 5 cells) or 6×10^5 cells/well (in 6-well plates) (HEK-293 cells). In experiments involving HEK-293 cells, DNA transfections were performed 24 hr after plating and inositol radiolabel was added 24 hr thereafter (see below). COS-7 cell transfections were performed as previously described (Gardella, T. J., et al., Endocrinology 132(5):2024-2030 (1993))
PLC was activated by PTH agonists in the presence of 30 mM LiCl at 37° C. for 30 min after 16 hr of labeling with [^3H]myo-inositol (3 uCi/ml) in serum-free medium containing 0.1% bovine serum albumin. […]
Total inositol polyphosphate produced in response to 1000 nM of the peptides shown were measured in HEK-293 cells that transiently expressed human PTH-1 receptors. Results are expressed as means±SEMs of the % of basal activity for triplicate determinations.

Row | fold impairment of EC50 for AC at the rat PTH-1 receptor relative to hPTH-(1-34) (rat PTH-1 receptors) | signaling (AC) via rat PTH-1 receptors, result in words (rat PTH-1 receptors; compared with human PTH-1 receptor) | PLC Activity (% Basal) (human PTH-1 receptors) | Substance
1 | about 6 fold | – | – | GVSEIQLMHNLGKHLNSMRRVEWLRKKL [[Gly^1,Arg^19]hPTH-(1-28)]
2 | – | more severely impaired | 305 ± 20 | SVSEIQLMHNLGKHLNSMERVEWLRKKL-NH2 [hPTH-(1-28)]
